Assay results published in publication PMC6414696 (mBio, 2019).
≈ marks a conversion by molar mass, not a printed value. Blank lines part the entries; values can stand above or below the molecule they belong to.

Tests used:
[1] = tested on: A. baumannii clinical isolates; assay: Broth microdilution MIC susceptibility testing against carbapenems; format: cell-based, Acinetobacter baumannii
OXA-23 = conditions: cited from earlier work
OXA-24/40 = conditions: cited from earlier work
OXA 24/40 = conditions: cited from earlier work
A. baumannii ARC5955 = assay: Neutropenic murine thigh infection model; format: in vivo; conditions: thigh tissue, CD-1 mice, 24 h after initiation of therapy, 40 mg/kg SC/q24h; for Change in log10 CFU/g: 40 mg/kg

MIC50 ([1]; Acinetobacter baumannii): 1 µg/mL (≈ 2.61 µM)
MIC90 ([1]; Acinetobacter baumannii): 32 µg/mL (≈ 83.4 µM)
MIC ([1]; Acinetobacter baumannii, strain AB001): 1 µg/mL (≈ 2.61 µM)
MIC ([1]; Acinetobacter baumannii, strain AB002): 2 µg/mL (≈ 5.22 µM)
MIC ([1]; Acinetobacter baumannii, strain AB003): 2 µg/mL (≈ 5.22 µM)
MIC ([1]; Acinetobacter baumannii, strain AB004): 2 µg/mL (≈ 5.22 µM)
MIC ([1]; Acinetobacter baumannii, strain AB005): 1 µg/mL (≈ 2.61 µM)
MIC ([1]; Acinetobacter baumannii, strain AB006): 4 µg/mL (≈ 10.4 µM)
MIC ([1]; Acinetobacter baumannii, strain AB007): 0.5 µg/mL (≈ 1.3 µM)
MIC ([1]; Acinetobacter baumannii, strain AB008): 1 µg/mL (≈ 2.61 µM)
MIC ([1]; Acinetobacter baumannii, strain AB009): 1 µg/mL (≈ 2.61 µM)
MIC ([1]; Acinetobacter baumannii, strain AB010): 1 µg/mL (≈ 2.61 µM)
MIC ([1]; Acinetobacter baumannii, strain AB011): 1 µg/mL (≈ 2.61 µM)
MIC ([1]; Acinetobacter baumannii, strain AB012): 1 µg/mL (≈ 2.61 µM)
MIC ([1]; Acinetobacter baumannii, strain AB013): 1 µg/mL (≈ 2.61 µM)
MIC ([1]; Acinetobacter baumannii, strain AB014): 1 µg/mL (≈ 2.61 µM)
MIC ([1]; Acinetobacter baumannii, strain AB015): 2 µg/mL (≈ 5.22 µM)
MIC ([1]; Acinetobacter baumannii, strain AB016): 0.5 µg/mL (≈ 1.3 µM)
MIC ([1]; Acinetobacter baumannii, strain AB017): 0.5 µg/mL (≈ 1.3 µM)
MIC ([1]; Acinetobacter baumannii, strain AB018): 0.5 µg/mL (≈ 1.3 µM)
MIC ([1]; Acinetobacter baumannii, strain AB019): 0.25 µg/mL (≈ 0.652 µM)
MIC ([1]; Acinetobacter baumannii, strain AB020): 0.5 µg/mL (≈ 1.3 µM)
MIC ([1]; Acinetobacter baumannii, strain AB021): 0.5 µg/mL (≈ 1.3 µM)
MIC ([1]; Acinetobacter baumannii, strain AB022): 0.5 µg/mL (≈ 1.3 µM)
MIC ([1]; Acinetobacter baumannii, strain AB023): 2 µg/mL (≈ 5.22 µM)
MIC ([1]; Acinetobacter baumannii, strain AB024): 0.5 µg/mL (≈ 1.3 µM)
MIC ([1]; Acinetobacter baumannii, strain AB025): 0.5 µg/mL (≈ 1.3 µM)
MIC ([1]; Acinetobacter baumannii, strain AB026): 1 µg/mL (≈ 2.61 µM)
MIC ([1]; Acinetobacter baumannii, strain AB027): 0.5 µg/mL (≈ 1.3 µM)
MIC ([1]; Acinetobacter baumannii, strain AB028): 0.5 µg/mL (≈ 1.3 µM)
MIC ([1]; Acinetobacter baumannii, strain AB029): 0.5 µg/mL (≈ 1.3 µM)
MIC ([1]; Acinetobacter baumannii, strain AB030): 1 µg/mL (≈ 2.61 µM)
MIC ([1]; Acinetobacter baumannii, strain AB031): 1 µg/mL (≈ 2.61 µM)
MIC ([1]; Acinetobacter baumannii, strain AB032): 0.5 µg/mL (≈ 1.3 µM)
MIC ([1]; Acinetobacter baumannii, strain AB033): 1 µg/mL (≈ 2.61 µM)
MIC ([1]; Acinetobacter baumannii, strain AB034): 1 µg/mL (≈ 2.61 µM)
MIC ([1]; Acinetobacter baumannii, strain AB035): 0.25 µg/mL (≈ 0.652 µM)
MIC ([1]; Acinetobacter baumannii, strain AB036): 0.5 µg/mL (≈ 1.3 µM)
MIC ([1]; Acinetobacter baumannii, strain AB037): 0.25 µg/mL (≈ 0.652 µM)
MIC ([1]; Acinetobacter baumannii, strain AB038): 1 µg/mL (≈ 2.61 µM)
MIC ([1]; Acinetobacter baumannii, strain AB039): 1 µg/mL (≈ 2.61 µM)
MIC ([1]; Acinetobacter baumannii, strain AB040): 0.5 µg/mL (≈ 1.3 µM)
MIC ([1]; Acinetobacter baumannii, strain AB041): 0.5 µg/mL (≈ 1.3 µM)
MIC ([1]; Acinetobacter baumannii, strain AB042): 4 µg/mL (≈ 10.4 µM)
MIC ([1]; Acinetobacter baumannii, strain AB043): 16 µg/mL (≈ 41.7 µM)
MIC ([1]; Acinetobacter baumannii, strain AB044): 8 µg/mL (≈ 20.9 µM)
MIC ([1]; Acinetobacter baumannii, strain AB045): 8 µg/mL (≈ 20.9 µM)
MIC ([1]; Acinetobacter baumannii, strain AB046): 16 µg/mL (≈ 41.7 µM)
MIC ([1]; Acinetobacter baumannii, strain AB047): 8 µg/mL (≈ 20.9 µM)
MIC ([1]; Acinetobacter baumannii, strain AB048): 16 µg/mL (≈ 41.7 µM)
MIC ([1]; Acinetobacter baumannii, strain AB049): 32 µg/mL (≈ 83.4 µM)
MIC ([1]; Acinetobacter baumannii, strain AB050): 16 µg/mL (≈ 41.7 µM)
MIC ([1]; Acinetobacter baumannii, strain AB051): 1 µg/mL (≈ 2.61 µM)
MIC ([1]; Acinetobacter baumannii, strain AB052): 2 µg/mL (≈ 5.22 µM)
MIC ([1]; Acinetobacter baumannii, strain AB053): 2 µg/mL (≈ 5.22 µM)
MIC ([1]; Acinetobacter baumannii, strain AB054): 32 µg/mL (≈ 83.4 µM)
MIC ([1]; Acinetobacter baumannii, strain AB055): 8 µg/mL (≈ 20.9 µM)
MIC ([1]; Acinetobacter baumannii, strain AB056): 16 µg/mL (≈ 41.7 µM)
MIC ([1]; Acinetobacter baumannii, strain AB057): 32 µg/mL (≈ 83.4 µM)
MIC ([1]; Acinetobacter baumannii, strain AB058): 2 µg/mL (≈ 5.22 µM)
MIC ([1]; Acinetobacter baumannii, strain AB059): 32 µg/mL (≈ 83.4 µM)
MIC ([1]; Acinetobacter baumannii, strain AB060): 32 µg/mL (≈ 83.4 µM)
MIC ([1]; Acinetobacter baumannii, strain AB061): 32 µg/mL (≈ 83.4 µM)
MIC ([1]; Acinetobacter baumannii, strain AB062): 64 µg/mL (≈ 167 µM)
MIC ([1]; Acinetobacter baumannii, strain AB063): 0.5 µg/mL (≈ 1.3 µM)
MIC ([1]; Acinetobacter baumannii, strain AB064): 0.25 µg/mL (≈ 0.652 µM)
MIC ([1]; Acinetobacter baumannii, strain AB065): 32 µg/mL (≈ 83.4 µM)
MIC ([1]; Acinetobacter baumannii, strain AB066): 0.25 µg/mL (≈ 0.652 µM)
MIC ([1]; Acinetobacter baumannii, strain AB067): 0.25 µg/mL (≈ 0.652 µM)
MIC ([1]; Acinetobacter baumannii, strain AB068): 1 µg/mL (≈ 2.61 µM)
MIC ([1]; Acinetobacter baumannii, strain AB069): 1 µg/mL (≈ 2.61 µM)
MIC ([1]; Acinetobacter baumannii, strain AB070): 2 µg/mL (≈ 5.22 µM)
MIC ([1]; Acinetobacter baumannii, strain AB071): 0.5 µg/mL (≈ 1.3 µM)
MIC ([1]; Acinetobacter baumannii, strain AB072): 0.25 µg/mL (≈ 0.652 µM)
MIC ([1]; Acinetobacter baumannii, strain CCF 1MR): > 8 µg/mL
MIC ([1]; Acinetobacter baumannii, strain CCF 2MR): > 8 µg/mL
MIC ([1]; Acinetobacter baumannii, strain CCF 3MR): > 8 µg/mL
MIC ([1]; Acinetobacter baumannii, strain CCF 4MR): > 8 µg/mL
MIC ([1]; Acinetobacter baumannii, strain CCF 5MR): > 8 µg/mL
MIC ([1]; Acinetobacter baumannii, strain CCF 6MR): > 8 µg/mL
MIC ([1]; Acinetobacter baumannii, strain CCF 7MR): > 8 µg/mL
MIC ([1]; Acinetobacter baumannii, strain CCF 8MR): > 8 µg/mL
MIC ([1]; Acinetobacter baumannii, strain UH AB202): > 8 µg/mL
MIC ([1]; Acinetobacter baumannii, strain UH AB461): > 8 µg/mL
MIC ([1]; Acinetobacter baumannii, strain UH AB477): > 8 µg/mL
MIC ([1]; Acinetobacter baumannii, strain UH AB487): > 8 µg/mL
MIC ([1]; Acinetobacter baumannii, strain UH AB489): > 8 µg/mL
MIC ([1]; Acinetobacter baumannii, strain UH AB490): > 8 µg/mL
MIC ([1]; Acinetobacter baumannii, strain UH AB491): > 8 µg/mL
MIC ([1]; Acinetobacter baumannii, strain UH AB636): > 8 µg/mL
MIC ([1]; Acinetobacter baumannii, strain UH AB660): > 8 µg/mL
MIC ([1]; Acinetobacter baumannii, strain UH AB667): > 8 µg/mL
MIC ([1]; Acinetobacter baumannii, strain VA-432): 64 µg/mL (≈ 167 µM)
MIC ([1]; Acinetobacter baumannii, strain VA-433): 32 µg/mL (≈ 83.4 µM)
MIC ([1]; Acinetobacter baumannii, strain VA-434): 64 µg/mL (≈ 167 µM)
MIC ([1]; Acinetobacter baumannii, strain VA-435): 64 µg/mL (≈ 167 µM)
MIC ([1]; Acinetobacter baumannii, strain VA-436): 64 µg/mL (≈ 167 µM)
MIC ([1]; Acinetobacter baumannii, strain VA-437): 32 µg/mL (≈ 83.4 µM)
MIC ([1]; Acinetobacter baumannii, strain VA-438): 32 µg/mL (≈ 83.4 µM)
MIC ([1]; Acinetobacter baumannii, strain VA-505): 32 µg/mL (≈ 83.4 µM)
Molecule: C[C@@H](O)[C@H]1C(=O)N2C(C(=O)O)=C(S[C@@H]3CN[C@H](C(=O)N(C)C)C3)[C@H](C)[C@H]12 [Meropenem]
isolates resistant (R ≥ 8 according to CLSI) ([1]; 72 WRAMC isolates (seventeen of 72)): 24%

Molecule: N#CC1CC[C@@H]2CN1C(=O)N2OS(=O)(=O)O (some centres unmarked) [WCK 4234]
k2/Ki (OXA-23): 1.7 ± 0.2 × 10^4 M^−1 s^−1
k2/Ki (OXA-24/40): 9.6 ± 1 × 10^3 M^−1 s^−1

Molecule: CC1=C[C@@H](C(N)=O)N2C[C@@H]1N(OS(=O)(=O)O)C2=O [compound 3]
IC50 (OXA 24/40): 360 nM

Molecule: Colistin
Log10 CFU/g (A. baumannii ARC5955): 5.3 log10 CFU/g
Change in log10 CFU/g (A. baumannii ARC5955): −1.4 log10 CFU/g
Change in log10 CFU/g (A. baumannii ARC5955; listed as colistin): −1.36 log10 CFU/g
